Where a name gives a salt, the structure may show the parent alone.
Columns and labels:
GST-PDZD8(ΔTM) = biological target: T1, GST-PDZD8(ΔTM) (Mus musculus, UniProt B9EJ80); assay: liposome-FRET lipid extraction assay; type: binding; conditions: labelled compound; donor liposomes PC/PE/rhodamine-PE; 25 °C
T1 sequence (B9EJ80 25-1147 limits assumed): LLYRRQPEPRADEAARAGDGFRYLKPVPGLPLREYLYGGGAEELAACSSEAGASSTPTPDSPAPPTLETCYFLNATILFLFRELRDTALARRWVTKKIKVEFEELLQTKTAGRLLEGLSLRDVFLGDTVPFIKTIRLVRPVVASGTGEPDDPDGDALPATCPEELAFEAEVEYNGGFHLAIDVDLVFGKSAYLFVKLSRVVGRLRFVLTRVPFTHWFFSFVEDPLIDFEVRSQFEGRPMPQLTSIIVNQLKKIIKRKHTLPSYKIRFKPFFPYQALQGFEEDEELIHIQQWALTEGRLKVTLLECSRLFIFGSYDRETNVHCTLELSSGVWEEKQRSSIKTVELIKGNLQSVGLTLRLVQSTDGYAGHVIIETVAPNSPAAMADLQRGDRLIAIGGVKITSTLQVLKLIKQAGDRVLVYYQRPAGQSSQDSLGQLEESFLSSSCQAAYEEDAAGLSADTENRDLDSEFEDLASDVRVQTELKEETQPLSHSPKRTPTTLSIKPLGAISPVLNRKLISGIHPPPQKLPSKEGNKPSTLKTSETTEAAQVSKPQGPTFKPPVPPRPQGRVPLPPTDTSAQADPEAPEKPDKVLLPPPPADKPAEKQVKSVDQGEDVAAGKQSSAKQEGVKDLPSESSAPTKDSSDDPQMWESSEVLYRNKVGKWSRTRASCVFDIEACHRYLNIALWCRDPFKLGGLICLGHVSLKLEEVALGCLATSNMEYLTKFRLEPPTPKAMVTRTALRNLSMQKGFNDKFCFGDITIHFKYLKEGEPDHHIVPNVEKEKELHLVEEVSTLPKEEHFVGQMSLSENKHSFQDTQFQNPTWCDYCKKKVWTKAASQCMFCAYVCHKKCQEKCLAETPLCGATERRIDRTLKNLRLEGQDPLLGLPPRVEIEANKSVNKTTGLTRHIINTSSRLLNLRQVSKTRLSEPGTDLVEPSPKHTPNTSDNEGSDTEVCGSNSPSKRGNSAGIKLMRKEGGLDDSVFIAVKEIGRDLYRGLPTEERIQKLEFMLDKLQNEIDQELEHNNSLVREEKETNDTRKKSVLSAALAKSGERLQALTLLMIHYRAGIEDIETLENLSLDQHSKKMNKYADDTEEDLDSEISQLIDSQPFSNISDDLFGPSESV

PDZD8(SMP-PDZ) = biological target: T2, PDZD8(SMP-PDZ) (Mus musculus, UniProt B9EJ80); assay: liposome-FRET lipid extraction assay; type: binding; conditions: labelled compound; donor liposomes PC/PE/rhodamine-PE; 25 °C
T2 sequence (B9EJ80 87-448 limits assumed): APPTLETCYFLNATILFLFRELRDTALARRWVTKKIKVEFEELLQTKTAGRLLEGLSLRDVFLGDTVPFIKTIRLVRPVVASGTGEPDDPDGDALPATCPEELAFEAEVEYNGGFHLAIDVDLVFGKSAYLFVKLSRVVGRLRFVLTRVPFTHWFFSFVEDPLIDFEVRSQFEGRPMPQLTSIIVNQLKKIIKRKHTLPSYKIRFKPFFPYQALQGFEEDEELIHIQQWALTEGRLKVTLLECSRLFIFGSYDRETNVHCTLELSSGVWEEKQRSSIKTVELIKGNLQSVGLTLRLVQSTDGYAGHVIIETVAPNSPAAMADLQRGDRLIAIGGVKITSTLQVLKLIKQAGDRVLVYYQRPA

Row | Compound | initial velocity of lipid extraction (GST-PDZD8(ΔTM)) | initial velocity of lipid extraction (PDZD8(SMP-PDZ))
1 | CCCCCCCCCCCCC/C=C/[C@@H](O)[C@H](CO)NC(=O)CCCCCNc1ccc([N+](=O)[O-])c2nonc12 [C6-NBD-ceramide, N-{6-[(7-nitro-2-1,3-benzoxadiazol-4-yl)amino]hexanoyl}-D-erythro-sphingosine] | PDZD8(ΔTM) also showed high extraction activity for ceramide | 
2 | CCCCCCCCCCCCCCCC(=O)OC[C@H](COP(=O)(O)OC[C@H](N)C(=O)O)OC(=O)CCCCCCCCCCCNc1ccc([N+](=O)[O-])c2nonc12 [NBD-PS, 1-palmitoyl-2-{12-[(7-nitro-2-1,3-benzoxadiazol-4-yl)amino]dodecanoyl}-sn-glycero-3-phosphoserine (ammonium salt)] | with the initial velocity of lipid extraction being greatest for PS | The activity of PDZD8(SMP-PDZ) was also about half that of PDZD8(ΔTM)

— publication PMC7486383, “Protrudin and PDZD8 contribute to neuronal integrity by promoting lipid extraction required for endosome maturation” (Nature Communications, 2020)
